The text below walks through data of patent US5149631A, “Compound marked with tritium, its preparation and its use in the location of nuclear receptors of retinoids” (Centre International de Recherches Dermatologiques Galderma …, priority 1989, dated 1992).

Test [1] concerns retinoic acid nuclear receptors (RARs). Briefly: Fixing on nuclear receptors RARs in nucleosol of F9 cells, analysed by HPSEC. It is filed as binding, murin. The note with it: for molecules of ligand fixed to the RARs per cell (HPSEC peak surface standardized to number of cells): F9 cells, 20 nM tritiated ligand. Here is the method:
Cultures of F9 cells of murin embryonic carcinoma (normally four 90 mm dishes containing in total 4-7×10^7 cells per incubation condition) were washed once with pBS (saline phosphate buffer) and incubated for 3 hours in a medium, without serum, supplemented with the marked retinoic homolog (to verify the specifity). The cells were then detached with a trypsin-EDTA mixture and numbered with a Burker hemocytometer. […] 50 μl of marked extract were injected on a 9×250 mm GF 250 column (Dupont de Nemours). The elution was carried out in a buffer 0.3M KH2 PO4, pH 7.8 at a rate of 1 ml/min. The protein content was followed by measuring the optical density at 280 nm. 28 fractions of 0.3 ml each were collected and counted in Picofluor (Packard) scintillating agent. For each retinoid concentration, the number of bonded molecules was determined using the surface of the radioactivity peak and the calculated concentration of demisaturation (C50). The molecular weight calibration of the column was carried out using human albumin (67 kDa), ovalbumin (45 kDa) and myoglobin (16.8 kDa). The dose-response curves and the competition curves were analyzed on a computer through nonlinear regression using the various forms of the Clark equation.

Test [2] deals with T1, CRABP (cellular retinoic acid binding protein) (Rattus norvegicus, UniProt P62966).
T1 construct: rat testicle cytosol containing CRABP; from tissue; host or cells: rat testicle homogenate / cytosol
Briefly: Direct fixing on CRABP binding protein in rat testicle cytosol, Sephadex G25 separation. The protocol:
The difference ( -- ) represents the specific bond.
The total fixing non-specific+specific ( .circle.-- .circle.) is obtained by incubation of increasing concentration (up to a maximum of […]) of the claimed compound with a constant quantity (0.3 ml) of a rat testicle homogenate (CRABP-rich organ). The non-specific fixing of the tritiated compound is determined in parallel, by measuring the fixing with increasing concentrations of the radioactive ligand in the presence of a large excess (1 μm) of cold homolog ligand (.quadrature.--.quadrature.). An incubation time of two hours is necessary for the establishment of balanced conditions.
The elution is done directly in scintillation tubes and the radioactivity is measured by counting.
The difference between the total fixing curve ( .circle.-- .circle.) and non-specific fixing (.quadrature.--.quadrature.) gives the specific fixing curve ( -- ). Analysis of this curve provides the dissociation constant at equilibrium (Kd) which is the concentration of the product required for 50% saturation of CRABP. This constant is a measurement of the affinity of the ligand for its bonding protein, Kd being inversely proportional to affinity (the smaller the Kd, the greater the affinity).

T1 sequence (P62966 whole entry): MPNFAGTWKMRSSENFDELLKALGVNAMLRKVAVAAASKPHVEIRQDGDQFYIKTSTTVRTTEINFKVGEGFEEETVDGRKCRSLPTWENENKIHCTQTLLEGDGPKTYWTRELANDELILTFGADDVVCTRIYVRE

Consider `[3H]c1cc(-c2ccc3cc(C(=O)O)ccc3c2[3H])cc(C23CC4CC(CC(C4)C2)C3)c1OC` [Example 1, 6-[3-(1-adamantyl)-4-methoxyphenyl]-2-naphthoic acid marked with tritium], for which the “specificity of fixing on RARs (about 45 kDa radioactivity peak)” value in test [1] (F9 cells incubated with 20 nM tritiated ligand, co-incubation with an excess of 1000 times of cold compound I) is recorded as “specific”. In addition, the “molecules of ligand fixed to the RARs per cell (HPSEC peak surface standardized to number of cells)” value in test [1] is reported as “approximately 4,000 molecules per cell”. Further, the “specific fixing on CRABP” value in test [2] (rat testicle homogenate, increasing concentrations of tritiated ligand, with or without 1 μm cold homolog ligand, two hours incubation) is on record as “no specific fixing”.
Turning to `CC1=C(/C=C/C(C)=C/C=C/C(C)=C/C(=O)O)C(C)(C)CCC1` [retinoic acid], the “fixing on RARs in the presence of excess cold ligand” value in test [1] (F9 cells incubated with 20 nM tritiated retinoic acid, excess of 100 times of cold retinoic acid) is given as “inhibited”. The “molecules of ligand fixed to the RARs per cell (HPSEC peak surface standardized to number of cells)” value in test [1] was “approximately 4,000 molecules per cell”. In addition, the “nature of the specific fixing on CRABP” value in test [2] (rat testicle cytosol) was “saturable and reversible”. The “non-specific fixing as share of the total fixing” value in test [2] (rat testicle cytosol, in the range of concentrations employed) is on record as “less than 20%”.
